{"source": "patent US20180155757A1", "about": "“IDENTIFICATION OF BACTERIA THAT ARE RESISTANT TO CARBAPENEMS BY MEMBRANE IMPERVIOUSNESS” (BIOMÉRIEUX, priority 2015, published 2018)", "assay_in_all_cases": "Etest MIC of indicator carbapenems on MH II agar without/with PMBN", "assay_type_in_all_cases": "cell-based", "key": {"[1]": {"tested_on": "Enterobacter aerogenes EA 5 (porin−)", "conditions": "Klebsiella aerogenes", "in_short": "(§1)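 MICs are read directly from Etest strips of imipenem, ertapenem or meropenem after 16–20 h at 35° C. The agar is MH II with PMBN at 0 up to ⅕ of its own MIC, inoculated by swab at 0.5 McFarland.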"}, "E. coli SAB 108 (porin−)": {"tested_on": "E. coli SAB 108 (porin−)", "conditions": "Escherichia coli", "in_short": "as §1"}, "[2]": {"tested_on": "K. pneumoniae 1012142 (KPC-2 producer)", "in_short": "as §1"}, "[3]": {"tested_on": "K. pneumoniae 1204036 (membrane impermeability)", "in_short": "as §1"}, "[4]": {"tested_on": "K. pneumoniae 1103183 (NDM producer)", "in_short": "as §1"}, "[5]": {"tested_on": "E. cloacae 1008074 (VIM producer)", "in_short": "as §1"}, "[6]": {"tested_on": "E. cloacae 1204056 (membrane impermeability)", "in_short": "as §1"}, "[7]": {"tested_on": "Enterobacter aerogenes EA 27 (porin−)", "conditions": "Klebsiella aerogenes", "in_short": "as §1"}, "[8]": {"tested_on": "K. pneumoniae KP 63 (porin−)", "conditions": "Klebsiella pneumoniae", "in_short": "as §1"}, "[9]": {"tested_on": "E. cloacae 1109137 (OXA-48 producer)", "in_short": "as §1"}, "[10]": {"tested_on": "K. pneumoniae KP 55 (porin−)", "conditions": "Klebsiella pneumoniae", "in_short": "as §1"}, "[11]": {"tested_on": "E. coli 1008078 (VIM producer)", "in_short": "as §1"}, "[12]": {"tested_on": "E. cloacae 1204051 (membrane impermeability)", "in_short": "as §1"}, "[13]": {"tested_on": "E. cloacae 1204153 (membrane impermeability)", "conditions": "in µg/mL", "in_short": "as §1"}, "[14]": {"tested_on": "E. cloacae 1008080 (IMP producer)", "conditions": "in µg/mL", "in_short": "as §1"}, "[15]": {"tested_on": "K. pneumoniae 1204035 (membrane impermeability)", "conditions": "in µg/mL", "in_short": "as §1"}, "[16]": {"tested_on": "E. cloacae 1204052 (membrane impermeability)", "in_short": "as §1"}}, "note": "Where two headings read alike, the source gives them in different places."}
{"smiles": "C[C@@H](O)[C@H]1C(=O)N2C(C(=O)O)=C(S[C@@H]3CN[C@H](C(=O)Nc4cccc(C(=O)O)c4)C3)[C@H](C)[C@H]12", "note": "[ETP, ertapenem]", "values": [{"measurement": "MIC", "setting": "[1]; E. aerogenes EA 5 (porin−), [PMBN] 0, Table 4", "value": 6, "unit": "µg/mL"}, {"measurement": "MIC", "setting": "[1]; E. aerogenes EA 5 (porin−), [PMBN] 50 μg/ml", "value": 2, "unit": "µg/mL"}, {"measurement": "MIC", "setting": "[1]; E. aerogenes EA 5 (porin−), [PMBN] 100 μg/ml", "value": 2, "unit": "µg/mL"}, {"measurement": "MIC", "setting": "[1]; E. aerogenes EA 5 (porin−), [PMBN] 150 μg/ml", "value": 1.5, "unit": "µg/mL"}, {"measurement": "MIC", "setting": "[1]; E. aerogenes EA 5 (porin−), [PMBN] 200 μg/ml", "value": 1, "unit": "µg/mL"}, {"measurement": "MIC", "setting": "[1]; EA 5 (porin−), [PMBN] 0, Table 2", "value": 32, "unit": "µg/mL"}, {"measurement": "MIC", "setting": "[1]; EA 5 (porin−), [PMBN] MIC/5", "value": 4, "unit": "µg/mL"}, {"measurement": "MIC", "setting": "[1]; EA 5 (porin−), [PMBN] MIC/8", "value": 4, "unit": "µg/mL"}, {"measurement": "MIC", "setting": "[1]; EA 5 (porin−), [PMBN] MIC/10", "value": 4, "unit": "µg/mL"}, {"measurement": "MIC", "setting": "E. coli SAB 108 (porin−); [PMBN] 0", "value": 4, "unit": "µg/mL"}, {"measurement": "MIC", "setting": "E. coli SAB 108 (porin−); [PMBN] 50 μg/ml", "value": 0.25, "unit": "µg/mL"}, {"measurement": "MIC", "setting": "E. coli SAB 108 (porin−); [PMBN] 100 μg/ml", "value": 0.19, "unit": "µg/mL"}, {"measurement": "MIC", "setting": "E. coli SAB 108 (porin−); [PMBN] 150 μg/ml", "value": 0.19, "unit": "µg/mL"}, {"measurement": "MIC", "setting": "E. coli SAB 108 (porin−); [PMBN] 200 μg/ml", "value": 0.19, "unit": "µg/mL"}, {"measurement": "MIC", "setting": "[2]; [PMBN] 0, Table 4a", "value": 32, "unit": "µg/mL"}, {"measurement": "MIC", "setting": "[2]; [PMBN] 100, Table 4a", "value": "> 32", "unit": "µg/mL"}, {"measurement": "MIC", "setting": "[2]; [PMBN] 200, Table 4a", "value": "> 32", "unit": "µg/mL"}, {"measurement": "MIC", "setting": "[2]; [PMBN] 300, Table 4a", "value": "> 32", "unit": "µg/mL"}, {"measurement": "MIC", "setting": "[3]; [PMBN] 0, Table 4a", "value": "> 32", "unit": "µg/mL"}, {"measurement": "MIC", "setting": "[3]; [PMBN] 100, Table 4a", "value": "> 32", "unit": "µg/mL"}, {"measurement": "MIC", "setting": "[3]; [PMBN] 200, Table 4a", "value": "> 32", "unit": "µg/mL"}, {"measurement": "MIC", "setting": "[3]; [PMBN] 300, Table 4a", "value": "> 32", "unit": "µg/mL"}, {"measurement": "MIC", "setting": "[4]; [PMBN] 0, Table 4a", "value": "> 32", "unit": "µg/mL"}, {"measurement": "MIC", "setting": "[4]; [PMBN] 100, Table 4a", "value": "> 32", "unit": "µg/mL"}, {"measurement": "MIC", "setting": "[4]; [PMBN] 200, Table 4a", "value": 32, "unit": "µg/mL"}, {"measurement": "MIC", "setting": "[4]; [PMBN] 300, Table 4a", "value": 32, "unit": "µg/mL"}, {"measurement": "MIC", "setting": "[5]; [PMBN] 0, Table 4a", "value": 0.38, "unit": "µg/mL"}, {"measurement": "MIC", "setting": "[5]; [PMBN] 100, Table 4a", "value": 0.5, "unit": "µg/mL"}, {"measurement": "MIC", "setting": "[5]; [PMBN] 200, Table 4a", "value": 0.5, "unit": "µg/mL"}, {"measurement": "MIC", "setting": "[5]; [PMBN] 300, Table 4a", "value": 0.5, "unit": "µg/mL"}, {"measurement": "MIC", "setting": "[6]; [PMBN] 0, Table 4a", "value": "> 32", "unit": "µg/mL"}, {"measurement": "MIC", "setting": "[6]; [PMBN] 100, Table 4a", "value": 12, "unit": "µg/mL"}, {"measurement": "MIC", "setting": "[6]; [PMBN] 200, Table 4a", "value": 3, "unit": "µg/mL"}, {"measurement": "MIC", "setting": "[6]; [PMBN] 300, Table 4a", "value": 1, "unit": "µg/mL"}, {"measurement": "MIC", "setting": "[7]", "value": 0.125, "unit": "µg/mL"}, {"measurement": "MIC", "setting": "[7]; E. aerogenes EA 27 (porin−), [PMBN] 0, Table 4, read-out: MIC", "value": "> 32", "unit": "µg/mL"}, {"measurement": "MIC", "setting": "[7]; E. aerogenes EA 27 (porin−), [PMBN] 50 μg/ml, read-out: MIC", "value": 4, "unit": "µg/mL"}, {"measurement": "MIC", "setting": "[7]; E. aerogenes EA 27 (porin−), [PMBN] 100 μg/ml, read-out: MIC", "value": 1.5, "unit": "µg/mL"}, {"measurement": "MIC", "setting": "[7]; E. aerogenes EA 27 (porin−), [PMBN] 150 μg/ml, read-out: MIC", "value": 0.75, "unit": "µg/mL"}, {"measurement": "MIC", "setting": "[7]; E. aerogenes EA 27 (porin−), [PMBN] 200 μg/ml, read-out: MIC", "value": 0.19, "unit": "µg/mL"}, {"measurement": "MIC", "setting": "[7]; EA 27 (porin−), [PMBN] 0, Table 2, read-out: MIC", "value": 64, "unit": "µg/mL"}, {"measurement": "MIC", "setting": "[7]; EA 27 (porin−), [PMBN] MIC/8, read-out: MIC", "value": 0.25, "unit": "µg/mL"}, {"measurement": "MIC", "setting": "[7]; EA 27 (porin−), [PMBN] MIC/10, read-out: MIC", "value": 16, "unit": "µg/mL"}, {"measurement": "MIC", "setting": "[8]; [PMBN] 0", "value": 1, "unit": "µg/mL"}, {"measurement": "MIC", "setting": "[8]; [PMBN] 50 μg/ml", "value": 0.5, "unit": "µg/mL"}, {"measurement": "MIC", "setting": "[8]; [PMBN] 100 μg/ml", "value": 0.38, "unit": "µg/mL"}, {"measurement": "MIC", "setting": "[8]; [PMBN] 150 μg/ml", "value": 0.19, "unit": "µg/mL"}, {"measurement": "MIC", "setting": "[8]; [PMBN] 200 μg/ml", "value": 0.125, "unit": "µg/mL"}, {"measurement": "MIC", "setting": "[9]; [PMBN] 0, Table 4a", "value": 24, "unit": "µg/mL"}, {"measurement": "MIC", "setting": "[9]; [PMBN] 200, Table 4a", "value": 12, "unit": "µg/mL"}, {"measurement": "MIC", "setting": "[9]; [PMBN] 300, Table 4a", "value": "> 32", "unit": "µg/mL"}, {"measurement": "MIC", "setting": "[10]; [PMBN] 0", "value": 0.38, "unit": "µg/mL"}, {"measurement": "MIC", "setting": "[10]; [PMBN] 50 μg/ml", "value": 0.25, "unit": "µg/mL"}, {"measurement": "MIC", "setting": "[10]; [PMBN] 100 μg/ml", "value": 0.19, "unit": "µg/mL"}, {"measurement": "MIC", "setting": "[10]; [PMBN] 150 μg/ml", "value": 0.125, "unit": "µg/mL"}, {"measurement": "MIC", "setting": "[10]; [PMBN] 200 μg/ml", "value": 0.064, "unit": "µg/mL"}, {"measurement": "MIC", "setting": "[11]; [PMBN] 0, Table 4a", "value": 2, "unit": "µg/mL"}, {"measurement": "MIC", "setting": "[11]; [PMBN] 100, Table 4a", "value": 0.75, "unit": "µg/mL"}, {"measurement": "MIC", "setting": "[11]; [PMBN] 200, Table 4a", "value": 0.5, "unit": "µg/mL"}, {"measurement": "MIC", "setting": "[11]; [PMBN] 300, Table 4a", "value": 0.38, "unit": "µg/mL"}, {"measurement": "MIC", "setting": "[12]; [PMBN] 0, Table 4a", "value": "> 32", "unit": "µg/mL"}, {"measurement": "MIC", "setting": "[12]; [PMBN] 100, Table 4a", "value": 12, "unit": "µg/mL"}, {"measurement": "MIC", "setting": "[12]; [PMBN] 200, Table 4a", "value": 4, "unit": "µg/mL"}, {"measurement": "MIC", "setting": "[12]; [PMBN] 300, Table 4a", "value": 3, "unit": "µg/mL"}, {"measurement": "MIC", "setting": "[13]; [PMBN] 0, Table 4a", "value": ">32"}, {"measurement": "MIC", "setting": "[13]; [PMBN] 100, Table 4a", "value": 8}, {"measurement": "MIC", "setting": "[13]; [PMBN] 200, Table 4a", "value": 4}, {"measurement": "MIC", "setting": "[13]; [PMBN] 300, Table 4a", "value": 3}, {"measurement": "MIC", "setting": "[14]; [PMBN] 0, Table 4a", "value": 16}, {"measurement": "MIC", "setting": "[14]; [PMBN] 100, Table 4a", "value": 24}, {"measurement": "MIC", "setting": "[14]; [PMBN] 200, Table 4a", "value": ">32"}, {"measurement": "MIC", "setting": "[14]; [PMBN] 300, Table 4a", "value": "12-24"}, {"measurement": "MIC", "setting": "[15]; [PMBN] 0, Table 4a", "value": ">32"}, {"measurement": "MIC", "setting": "[15]; [PMBN] 100, Table 4a", "value": 8}, {"measurement": "MIC", "setting": "[15]; [PMBN] 200, Table 4a", "value": "8-12"}, {"measurement": "MIC", "setting": "[15]; [PMBN] 300, Table 4a", "value": 6}, {"measurement": "MIC", "setting": "[16]; [PMBN] 0, Table 4a", "value": "> 32", "unit": "µg/mL"}, {"measurement": "MIC", "setting": "[16]; [PMBN] 100, Table 4a", "value": 12, "unit": "µg/mL"}, {"measurement": "MIC", "setting": "[16]; [PMBN] 200, Table 4a", "value": 8, "unit": "µg/mL"}, {"measurement": "MIC", "setting": "[16]; [PMBN] 300, Table 4a", "value": 3, "unit": "µg/mL"}]}
